Experimental findings from patent EP4635953A1, “PYRROLOPYRIDINE DERIVATIVE, AND PHARMACEUTICAL COMPOSITION THEREOF AND USE THEREOF” (Iregene Therapeutics Co., Ltd, priority 2022, dated 2024) are described below.

The target of this assay is single-stranded miR-145. Put plainly: Isothermal titration calorimetry (ITC), Waters Nano-ITC. Type of assay: binding. The note with it: for Kd: Multiple Sites model. The text has this: Isothermal titration calorimetry (ITC) utilizes the principle of power compensation to accurately obtain the enthalpy change of intermolecular interactions within a broad concentration range in the system through a single concentration scan. It measures the heat change during binding and provides the complete thermodynamic characteristics of nucleic acid-ligand interactions. Quantifying the thermodynamic properties and energy of the complex is essential for analyzing the molecular basis of the interaction between the microRNA miR-145 and the compound. The present invention uses the Waters Nano-ITC calorimeter to in vitro verify the nucleic acid-small molecule interactions.
The experimental process involves placing 300µL of a 50µM single-stranded miR-145 solution in a temperaturecontrolled sample chamber, and using small molecule A-3-6 (i.e., the 2-phenyl-N-(1H-pyrrolo[2,3-c]pyridine-5-yl)acetamide obtained in Example 9) as the ligand in a 50µL, 500µM concentration, which is gradually injected (or titrated) into the sample chamber. The heat change is measured by comparing the sample chamber with a reference chamber, showing either an endothermic or exothermic peak. The interaction pattern between the two reactants is fitted using the software provided by the instrument, and it directly calculates the reaction binding enthalpy (ΔH, kJ/mol), reaction binding entropy (ΔS, J/(mol·K)), number of binding sites (n), and binding equilibrium constant (Ka, M), obtaining the kinetic data. […] The calculated number of binding sites (nSite) for A-3-6 with miR-145 solution are n1=3 and n2=1.8, with Kd1=7.017E-8 and Kd2=7.544E-9, ΔH1=-69.08 and ΔH2=-137.2, ΔS1=-9.474E1 and ΔS2=-3.048E2.
(ITC needs no label: the signal is the heat of the interaction.)

Structures are written as SMILES. Where two headings read alike, the source gives them in different places.

For the compound `O=C(Cc1ccccc1)Nc1cc2cc[nH]c2cn1` [Compound A-3-6, 2-Phenyl-N-(1H-Pyrrolo[2,3-c]pyridin-5-yl)acetamide], the Kd was found to be 70.2 nM (site 1, read-out: Kd1) and 7.54 nM (site 2, read-out: Kd2). For the same compound, the “binding to the target single-stranded miR-145” value (conclusion from the ITC experiment) was “can specifically bind”.
